Laboratory results: ChEMBL document CHEMBL1201862, “PubChem BioAssay data set” (2004)
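The compound was tested at five concentrations on cells cultured in 96-well plates, with a 48-hour exposure period. GI50 marks 50% less growth.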 Activity calls are given as the source filed them. Cut-off read from the data, not from the text of the source: active = GI50 up to about 1.1 µM and inactive = higher.

Tests used:
Test in all cases: NCI tumour cell line growth inhibition, 48 h
NCI-H23 = system: NCI-H23
PC-3 = system: PC-3
MOLT-4 = system: MOLT-4
RPMI-8226 = system: RPMI-8226
HCT-116 = system: HCT-116
OVCAR-8 = system: OVCAR-8
SNB-75 = system: SNB-75
NCI/ADR-RES = system: NCI/ADR-RES
SNB-19 = system: SNB-19
HOP-62 = system: HOP-62
COLO 205 = system: COLO 205
EKVX = system: EKVX
SF-295 = system: SF-295
M14 = system: M14
NCI-H226 = system: NCI-H226
SR = system: SR
OVCAR-4 = system: OVCAR-4
IGROV-1 = system: IGROV-1
SW-620 = system: SW-620
SK-OV-3 = system: SK-OV-3

CC1(C)N=C(N)N=C(N)N1CCCCc1ccccc1
GI50 (NCI-H23): 0.31 µM (active)
GI50 (PC-3): 9.51 µM (inactive)
GI50 (MOLT-4): 0.104 µM (active)
GI50 (RPMI-8226): 2.43 µM (inactive)
GI50 (HCT-116): 0.0364 µM (active)
GI50 (OVCAR-8): 0.251 µM (active)
GI50 (SNB-75): 15.4 µM (inactive)
GI50 (NCI/ADR-RES): > 90.2 µM (inactive)
GI50 (SNB-19): 0.733 µM (active)
GI50 (HOP-62): 1.18 µM (inactive)
GI50 (COLO 205): 0.433 µM (active)
GI50 (EKVX): 2.21 µM (inactive)
GI50 (SF-295): 0.145 µM (active)
GI50 (M14): 0.181 µM (active)
GI50 (NCI-H226): 6.47 µM (inactive)
GI50 (SR): < 0.0334 µM (active)
GI50 (OVCAR-4): 17.3 µM (inactive)
GI50 (IGROV-1): 0.232 µM (active)

COc1cc(/C=C2\N=C(c3ccccc3)N(c3nc4ccccc4s3)C2=O)cc(OC)c1OC
GI50 (NCI-H23): 31.1 µM (inactive)
GI50 (PC-3): 50.5 µM (inactive)
GI50 (MOLT-4): 11.7 µM (inactive)
GI50 (RPMI-8226): 0.352 µM (active)
GI50 (HCT-116): 35 µM (inactive)
GI50 (OVCAR-8): 31 µM (inactive)
GI50 (SNB-75): 23.1 µM (inactive)
GI50 (NCI/ADR-RES): 20.4 µM (inactive)
GI50 (SNB-19): 34.2 µM (inactive)
GI50 (HOP-62): 24.4 µM (inactive)
GI50 (EKVX): 21.8 µM (inactive)
GI50 (SF-295): 39.5 µM (inactive)
GI50 (M14): 31.4 µM (inactive)
GI50 (NCI-H226): > 100 µM (inactive)
GI50 (SW-620): 31.3 µM (inactive)
GI50 (SR): 11.7 µM (inactive)
GI50 (OVCAR-4): 23.9 µM (inactive)
GI50 (IGROV-1): 28.6 µM (inactive)

CCOC(=O)c1c(NC(=O)c2cccs2)sc2c1CCC2
GI50 (NCI-H23): > 100 µM (inactive)
GI50 (PC-3): > 100 µM (inactive)
GI50 (MOLT-4): > 100 µM (inactive)
GI50 (RPMI-8226): > 100 µM (inactive)
GI50 (HCT-116): > 100 µM (inactive)
GI50 (OVCAR-8): > 100 µM (inactive)
GI50 (SNB-75): 1.22 µM (inactive)
GI50 (NCI/ADR-RES): > 100 µM (inactive)
GI50 (SNB-19): > 100 µM (inactive)
GI50 (HOP-62): > 100 µM (inactive)
GI50 (COLO 205): > 100 µM (inactive)
GI50 (EKVX): > 100 µM (inactive)
GI50 (SF-295): > 100 µM (inactive)
GI50 (M14): > 100 µM (inactive)
GI50 (NCI-H226): > 100 µM (inactive)
GI50 (SR): 73.3 µM (inactive)
GI50 (IGROV-1): > 100 µM (inactive)

COc1cccc(-c2cc(O)c3cc(N4CCOCC4)ccc3n2)c1
GI50 (NCI-H23): 0.0289 µM (active)
GI50 (PC-3): 0.0364 µM (active)
GI50 (MOLT-4): 0.0391 µM (active)
GI50 (RPMI-8226): 0.361 µM (active)
GI50 (HCT-116): 0.0221 µM (active)
GI50 (OVCAR-8): 0.0375 µM (active)
GI50 (SNB-75): 0.0377 µM (active)
GI50 (NCI/ADR-RES): 0.0845 µM (active)
GI50 (SNB-19): 0.0543 µM (active)
GI50 (HOP-62): 0.0586 µM (active)
GI50 (COLO 205): 0.0204 µM (active)
GI50 (EKVX): 0.363 µM (active)
GI50 (SF-295): 0.041 µM (active)
GI50 (NCI-H226): 0.0383 µM (active)
GI50 (SW-620): 0.0324 µM (active)
GI50 (SR): 0.0158 µM (active)
GI50 (OVCAR-4): 6.76 µM (inactive)
GI50 (IGROV-1): 0.0575 µM (active)

Cc1nn(C(=O)c2ccncc2)c2c1C(c1ccc(Cl)cc1)SC(=N)N2 (stereo not given)
GI50 (NCI-H23): > 10 µM (inactive)
GI50 (PC-3): > 10 µM (inactive)
GI50 (MOLT-4): > 10 µM (inactive)
GI50 (RPMI-8226): > 10 µM (inactive)
GI50 (HCT-116): > 10 µM (inactive)
GI50 (OVCAR-8): > 10 µM (inactive)
GI50 (SNB-75): > 10 µM (inactive)
GI50 (NCI/ADR-RES): > 10 µM (inactive)
GI50 (SNB-19): > 10 µM (inactive)
GI50 (HOP-62): > 10 µM (inactive)
GI50 (COLO 205): > 10 µM (inactive)
GI50 (EKVX): > 10 µM (inactive)
GI50 (SF-295): > 10 µM (inactive)
GI50 (M14): > 10 µM (inactive)
GI50 (NCI-H226): > 10 µM (inactive)
GI50 (SW-620): > 10 µM (inactive)
GI50 (SR): > 10 µM (inactive)
GI50 (OVCAR-4): > 10 µM (inactive)
GI50 (IGROV-1): > 10 µM (inactive)

CC(=O)OCC12C(OC(C)=O)C[C@@H](C)C3(CC(c4ccoc4)OC3=O)C1CCC(O)C21CO1 (stereo not given in full)
GI50 (NCI-H23): > 100 µM (inactive)
GI50 (PC-3): > 100 µM (inactive)
GI50 (MOLT-4): > 100 µM (inactive)
GI50 (RPMI-8226): > 100 µM (inactive)
GI50 (HCT-116): > 100 µM (inactive)
GI50 (OVCAR-8): > 100 µM (inactive)
GI50 (SNB-75): > 100 µM (inactive)
GI50 (NCI/ADR-RES): > 100 µM (inactive)
GI50 (SNB-19): > 100 µM (inactive)
GI50 (HOP-62): > 100 µM (inactive)
GI50 (COLO 205): > 100 µM (inactive)
GI50 (SF-295): > 100 µM (inactive)
GI50 (M14): > 100 µM (inactive)
GI50 (NCI-H226): > 100 µM (inactive)
GI50 (SR): > 100 µM (inactive)
GI50 (OVCAR-4): > 100 µM (inactive)
GI50 (IGROV-1): > 100 µM (inactive)

CCOC(=O)c1ccc(NCc2ccc3oc(=O)c(-c4ccccc4)nc3c2)cc1
GI50 (NCI-H23): 19.1 µM (inactive)
GI50 (PC-3): 45.2 µM (inactive)
GI50 (MOLT-4): 15.1 µM (inactive)
GI50 (HCT-116): 29.8 µM (inactive)
GI50 (OVCAR-8): 18.8 µM (inactive)
GI50 (SNB-75): 9.48 µM (inactive)
GI50 (NCI/ADR-RES): 50.7 µM (inactive)
GI50 (SNB-19): > 100 µM (inactive)
GI50 (HOP-62): > 100 µM (inactive)
GI50 (COLO 205): 23.2 µM (inactive)
GI50 (EKVX): 52.8 µM (inactive)
GI50 (SF-295): > 100 µM (inactive)
GI50 (SK-OV-3): > 100 µM (inactive)
GI50 (M14): 31.3 µM (inactive)
GI50 (NCI-H226): 94.2 µM (inactive)
GI50 (SW-620): 21.6 µM (inactive)
GI50 (SR): 34.9 µM (inactive)
GI50 (OVCAR-4): 18 µM (inactive)
GI50 (IGROV-1): 67 µM (inactive)

O=C(O)c1ccc(Nc2cnc3cc(C(F)(F)F)ccc3n2)cc1
GI50 (NCI-H23): 46.5 µM (inactive)
GI50 (PC-3): 80.7 µM (inactive)
GI50 (MOLT-4): 47.5 µM (inactive)
GI50 (RPMI-8226): 35.2 µM (inactive)
GI50 (HCT-116): 54.7 µM (inactive)
GI50 (OVCAR-8): 52.1 µM (inactive)
GI50 (SNB-75): 35.6 µM (inactive)
GI50 (NCI/ADR-RES): 40.9 µM (inactive)
GI50 (SNB-19): 60 µM (inactive)
GI50 (HOP-62): 90.2 µM (inactive)
GI50 (COLO 205): > 100 µM (inactive)
GI50 (EKVX): 40.6 µM (inactive)
GI50 (SF-295): 89.3 µM (inactive)
GI50 (NCI-H226): 71.3 µM (inactive)
GI50 (SW-620): 69.8 µM (inactive)
GI50 (SR): 56.1 µM (inactive)
GI50 (IGROV-1): 25.3 µM (inactive)

COCn1cc(C2=C(C)C(=O)C(C)=C(C)C2=O)cn1
GI50 (NCI-H23): > 100 µM (inactive)
GI50 (PC-3): > 100 µM (inactive)
GI50 (MOLT-4): 14.9 µM (inactive)
GI50 (RPMI-8226): 27.9 µM (inactive)
GI50 (HCT-116): 20 µM (inactive)
GI50 (OVCAR-8): 21.1 µM (inactive)
GI50 (SNB-75): 11.4 µM (inactive)
GI50 (NCI/ADR-RES): 26.2 µM (inactive)
GI50 (SNB-19): > 100 µM (inactive)
GI50 (HOP-62): > 100 µM (inactive)
GI50 (COLO 205): > 100 µM (inactive)
GI50 (EKVX): 18.2 µM (inactive)
GI50 (SF-295): > 100 µM (inactive)
GI50 (M14): > 100 µM (inactive)
GI50 (NCI-H226): > 100 µM (inactive)
GI50 (SW-620): > 100 µM (inactive)
GI50 (SR): 39.4 µM (inactive)
GI50 (OVCAR-4): 17.7 µM (inactive)
GI50 (IGROV-1): > 100 µM (inactive)

Cc1ccc2[nH]c3c(c2c1)C1CCC(C(C)(C)C)CC1C1C(=O)N(c2ccc4c(c2)OCO4)C(=O)C31 (stereo not given)
GI50 (NCI-H23): 6.55 µM (inactive)
GI50 (PC-3): 3.07 µM (inactive)
GI50 (MOLT-4): 1.81 µM (inactive)
GI50 (RPMI-8226): 4.3 µM (inactive)
GI50 (HCT-116): 2.34 µM (inactive)
GI50 (OVCAR-8): 1.97 µM (inactive)
GI50 (NCI/ADR-RES): 3.1 µM (inactive)
GI50 (SNB-19): 2.64 µM (inactive)
GI50 (HOP-62): 1.91 µM (inactive)
GI50 (COLO 205): 3.31 µM (inactive)
GI50 (EKVX): 3.57 µM (inactive)
GI50 (SF-295): 3.11 µM (inactive)
GI50 (SK-OV-3): 2.58 µM (inactive)
GI50 (M14): 4.7 µM (inactive)
GI50 (NCI-H226): 2.84 µM (inactive)
GI50 (SW-620): 2.63 µM (inactive)
GI50 (SR): 1.91 µM (inactive)
GI50 (OVCAR-4): 1.85 µM (inactive)
GI50 (IGROV-1): 2.45 µM (inactive)

Cc1c(NC(=O)CSC(=S)N2CCN(Cc3ccccc3)CC2)c(=O)n(-c2ccccc2)n1C
GI50 (NCI-H23): > 100 µM (inactive)
GI50 (PC-3): > 100 µM (inactive)
GI50 (MOLT-4): > 100 µM (inactive)
GI50 (RPMI-8226): > 100 µM (inactive)
GI50 (HCT-116): > 100 µM (inactive)
GI50 (OVCAR-8): > 100 µM (inactive)
GI50 (NCI/ADR-RES): > 100 µM (inactive)
GI50 (SNB-19): > 100 µM (inactive)
GI50 (HOP-62): > 100 µM (inactive)
GI50 (COLO 205): > 100 µM (inactive)
GI50 (EKVX): > 100 µM (inactive)
GI50 (SF-295): > 100 µM (inactive)
GI50 (SK-OV-3): > 100 µM (inactive)
GI50 (M14): > 100 µM (inactive)
GI50 (NCI-H226): > 100 µM (inactive)
GI50 (SW-620): > 100 µM (inactive)
GI50 (SR): > 100 µM (inactive)
GI50 (OVCAR-4): > 100 µM (inactive)
GI50 (IGROV-1): > 100 µM (inactive)
